Measurements reported in patent publication US20110251128A1, “THYMOSIN Beta4 PEPTIDES PROMOTE TISSUE REGENERATION” (The Board of Regents of the University of Texas System, priority 2010, published 2011).
“Also recorded” adds a separate entry of the source. Where two headings read alike, the source gives them in different places. Residues, ends and D or L forms follow the SMILES beside them. No end group written: not given here.

Assays:
[1] = test system: embryonic cardiac endothelial cells; assay: In vitro embryonic cardiac cell migration assay on collagen gel (outflow tract explants); format: cell-based, mouse; set-up: unit not given here; details: 300 ng peptide or 100 ng TB4 in medium; E11.5 outflow tract explants; results normalized to PBS control (TB4 = 100.00)
Experimental: (§1) In vitro embryonic cardiac cell migration assay. The outflow tract of the heart was dissected from E11.5 wild-type mouse embryos and placed on rat-tail collagen matrix (Roche) endothelial layer facing down as described (Bock-Marquette et al., 2004; Runyan and Markwald, 1983). After 10 h of attachment, three independent explants were incubated with 300 ng of peptide #1-17, 100 ng of TB4, or 3 μl PBS in […] OPTIMEM medium (Invitrogen/Gibco) respectively. Medium and protein were changed every two days. To monitor migration distance photos were taken daily using Nikon DXM1200F microscope at 4× magnification. Cell migration distance was quantified by ImageJ software (http at rsb.info.nih.gov/ij/) in three separate explants and three measurements for each treatment respectively. Beating frequency of myocardial cells was counted three times at 7-15 days of treatment. Calculations were normalized to PBS and TB4 treated positive and negative controls. After 15 days at 37° C. in 5% CO2, explants were fixed in 4% paraformaldehyde in PBS for 10 min at room temperature. Explants were stored at 4° C. in PBS for further immunocytochemical investigations.

myocardial cells = assay: Beating frequency of myocardial cells in embryonic cardiac explants on collagen gel; format: cell-based, mouse; details: for frequency of myocardial beating: 300 ng peptide or 100 ng TB4, normalized to PBS and TB4 controls (TB4 = 100.00); for myocyte beating, effect in words: compared with full-length TB4 or other constructs
Experimental: as §1

[2] = Yang et al., 2004, cited from earlier work
[3] = test system: C57BL/6J male mice after coronary ligation; assay: Myocardial infarction by LAD coronary ligation in adult mice: echocardiography, scar volume, myocyte size; format: in vivo, mouse; details: for post-ischemic cardiac function, in words: adult mice after coronary ligation; for side effects: mouse model
Text: (§2) Animals and Surgical procedures. Mice: Myocardial infarctions were produced in seventy C57BL/6J male mice at 16 weeks of age (25-30 g) by ligation of the left anterior descending (LAD) coronary artery as described (Garner et al., 2003). All animal protocols were reviewed and approved by the University of Texas Southwestern Medical School Institutional Animal Care Advisory Committee and were in compliance with the rules governing animal use as published by the NIH. Mice were sedated in an isoflurane chamber (5%) for 60 seconds until self-designed coaxial mask could be safely applied. The mask supplied continuous isoflurane (2.0%) and oxygen (98.0%) under positive pressure from a Harvard small animal respirator throughout the procedures. Immediately after ligation mice were injected with 200 ng of peptide in […] or […] PBS in collagen intracardially in the infarction border, and with […] PBS intraperitoneally as described (Bock-Marquette et al., 2004). Intraperitoneal injections were repeated every three days after ligation. Effective doses of the peptides were calculated based on optimal in vitro cell migration effect and on biodistribution calculations of full length TB4 (Mora et al., 1997). The inventors administered buprenorphine (0.05 mg/kg) for post-operative pain control. Hearts were removed 1, 14 and 21 days after ligation and processed for further investigations.
Analysis of cardiac function by echocardiography: Echocardiograms to assess systolic function were performed using M-mode and 2-dimensional measurements as described previously (Garner et al., 2003). The measurements represented the average of six selected cardiac cycles from at least two separate scans performed in random-blind fashion with papillary muscles used as a point of reference for consistency in level of scan. End diastole was defined as the maximal left ventricle (LV) diastolic dimension and end systole was defined as the peak of posterior wall motion. Single outliers in each group were omitted for statistical analysis. Fractional shortening (FS), a surrogate of systolic function, was calculated from LV dimensions as follows: FS=[(EDD−ESD)/EDD]×100%. Ejection fraction (EF) was calculated as follows: EF=[(edd^3−esd^3)/edd^3]×100%. EDD, end diastolic dimension; ESD, end systolic dimension.
Calculation of scar volume and myocyte size: Scar volume was calculated after Masson's trichrome staining in six sections through the heart of each mouse using Openlab 3.03 software (Improvision) similar to previously described (Bock-Marquette et al., 2004). Percent area of collagen deposition was measured on each section in blinded fashion and averaged for each mouse.

[4] = test system: Wt-1 positive cardiac progenitors; assay: Immunohistochemistry, Wt-1 positive progenitor cells at infarction border; format: in vivo, mouse; details: infarction border, two weeks after injections (FIG. 11)
Text: Animals and Surgical procedures. Mice: Myocardial infarctions were produced in seventy C57BL/6J male mice at 16 weeks of age (25-30 g) by ligation of the left anterior descending (LAD) coronary artery as described (Garner et al., 2003). All animal protocols were reviewed and approved by the University of Texas Southwestern Medical School Institutional Animal Care Advisory Committee and were in compliance with the rules governing animal use as published by the NIH. Mice were sedated in an isoflurane chamber (5%) for 60 seconds until self-designed coaxial mask could be safely applied. The mask supplied continuous isoflurane (2.0%) and oxygen (98.0%) under positive pressure from a Harvard small animal respirator throughout the procedures. […] Effective doses of the peptides were calculated based on optimal in vitro cell migration effect and on biodistribution calculations of full length TB4 (Mora et al., 1997). […]
Immunohistochemistry. Adult mouse cardiac tissue was fixed in 4% paraformaldehyde and sections were analyzed by immunohistochemistry. […] Number of sm a-actin positive capillaries and Wt-1 positive cells were counted at the infarction border zone in high power photographs at all levels of the sections in three peptide, TB4 and PBS treated hearts respectively.

mature coronary vessels = assay: Immunohistochemistry, smooth muscle α-actin positive vessels at infarction border zone; format: in vivo, mouse; details: two weeks after treatment, compared to PBS (FIG. 10)
Text: as §2
Immunohistochemistry. Adult mouse cardiac tissue was fixed in 4% paraformaldehyde and sections were analyzed by immunohistochemistry. Hearts were sectioned at eight levels from the base to the apex. Serial sections were immunostained with primary antibodies against Pecam-1 and Wt-1 (1:50) (Santa Cruz), Smooth muscle a-actin (1:220) (Sigma), Sarcomeric a-actinin (1:200) (Sigma), Connexin43 (1:200) (Invitrogen), pS368-Connexin43 (1:200) (Cell Signaling Technology) as recommended by the manufacturer. Terminal deoxynucleotidyl transferase dUTP nick end labeling (TUNEL) assay was performed using In Situ Cell Detection kit (Roche). Number of sm a-actin positive capillaries and Wt-1 positive cells were counted at the infarction border zone in high power photographs at all levels of the sections in three peptide, TB4 and PBS treated hearts respectively.

adult infarcted pigs = assay: Ischemia reperfusion (acute myocardial infarction) in pigs with retroinfusion of peptides; format: in vivo, pig; details: pig model
Experimental: Pigs: German pigs were purchased from the animal research department of the Ludwig-Maximilians-University (Oberschleissheim, Germany). Animal care and all experimental procedures were performed in accordance to the German and NIH animal legislation guidelines and were approved by the Bavarian Animal Care and Use Committee (AZ 55.2-1-54-2531-26/09). All animal experiments were conducted at the Walter Brendel Centre of Experimental Medicine, University of Munich.
Ischemia reperfusion experiments: Pigs (n=5/experimental group) were anesthetized and instrumented as described previously (Hinkel et al., 2008). Briefly, a balloon was placed in the left anterior descending artery (LAD) distal to the bifurcation of the first diagonal branch and inflated for 60 min. Correct localization of the coronary occlusion and patency of the first diagonal branch were ensured by injection fluoroscopy. Regional application of TB4 peptides or saline solution was performed via selective pressure regulated retroinfusion for 10 min into the anterior interventricular vein (AIV) draining the LAD-perfused myocardium (Kupatt et al., 2005).
Global myocardial function: At day 0 before ischemia induction and after 24 h of reperfusion myocardial function was obtained via Millar pressure tip catheter. Therefore the Millar pressure tip catheter was placed in the left ventricle and left ventricular pressure was recorded for off-line analysis.
Regional myocardial function: 24 hours after induction of ischemia, sternotomy was performed and ultrasonic crystals were placed subendocardial into the area at risk, the infracted area as well as into the Cx perfusion area in a standardized manner. Subendocardial segment shortening (SES) was assessed under resting heart rate as well as at 120 and 150 beats/min atrial pacing (for 1 min/each).
Infarct size and local inflammation: For assessment of infarct size methylene blue was injected in the left ventricle for negative staining of the AAR and tetrazolium red was applied into the LAD for viability staining in the infracted area. Thereafter, left ventricle was cut into slices (5 mm thick), and subjected to digital photography. Planimetry of different slices was conducted via ImageJ for assessment of infarct size in % of AAR. Tissue samples from infarct, area at risk and non-ischemic control were harvested for leukocyte recruitment. Myeloperoxidase assays were performed as previously described (Kupatt et al., 2005).

Molecule	endothelial cell migration distance [1]	frequency of myocardial beating (myocardial cells)	myocyte beating, effect in words (myocardial cells)	other results
#5: de-acetylated form of the N-terminal variable domain with Met6 (of #2) (SDKPDM; Thymosin beta-4; UniProt P62328 2-7, looked up, fragment)	139	66.39+/−3.46 beats/75 sec	–	–
Ac-SDKP (Ac-SDKP-OH; UniProt P62328 2-5, looked up, fragment) [#1, acetylated N-terminal variable domain of TB4]	116	45.08+/−2.31 beats/75 sec	inhibit myocyte beating in vitro	fibrosis, inflammation and coronary vessel growth / angiogenesis [2]: highly angiogenic; post-ischemic cardiac (global) function [2]: did not affect post-ischemic cardiac function; also recorded: did not aid global function; fibrosis, inflammation and coronary vessel growth / angiogenesis ([2]; listed as Ac-SDKP): positive influence; post-ischemic cardiac (global) function ([2]; listed as Ac-SDKP): does not aid post-ischemic cardiac function
Ac-SDKPDMox [#3]	70.7	17.21+/−1.00 beats/75 sec	–	post-ischemic cardiac function, in words [3]: does not alter cardiac function; post-ischemic cardiac function, in words ([3]; listed as Ac-SDKPDMox): failed to aid cardiac function; Wt-1 positive progenitor cells [4]: fails to increase Wt-1 positive progenitor cells; number of mature coronary vessels (mature coronary vessels): fails to alter the number of mature coronary vessels; number of mature coronary vessels (mature coronary vessels; listed as Ac-SDKPDMox): did not initiate vessel growth
#2: acetylated N-terminal variable domain with addition of Met6 (Ac-SDKPDM-OH; UniProt P62328 2-7, looked up, fragment)	–	10.65+/−1.15 beats/75 sec	inhibit myocyte beating in vitro	–
LKKTET [#8]	13	87.02+/−16.17 beats/75 sec	resembled myocyte fibrillation; also recorded: increases beating frequency	–
C[C@H](N)C(=O)NCC(=O)N[C@@H](CCC(=O)O)C(=O)N[C@@H](CO)C(=O)O [#17, AGES] (H-AGES-OH)	–	–	–	side effects (adult infarcted pigs): did not observe any major side effects; side effects [3]: did not observe any major side effects
#4: de-acetylated form of the N-terminal variable domain (of #1) (SDKP; Thymosin beta-4; UniProt P62328 2-5, looked up, fragment)	154	86.88+/−1.15 beats/75 sec	–	–
LKKTETQEKNPLPSKETIEQEKQAGES [#14]	–	–	–	side effects (adult infarcted pigs): did not observe any major side effects; side effects [3]: did not observe any major side effects
